In patent US8017589B2, “Avermectin B1 and avermectin B1 monosaccharide derivatives having an alkoxymethyl substituent in the 4″-or 4′-position” (Syngenta Crop Protection LLC, priority 2002, dated 2011):

Columns and labels:
Assay type in all cases: in vivo
Spodoptera littoralis = experiment: Action against Spodoptera littoralis (foliar spray on young soybean plants); conditions: 72 h, 12.5 ppm spray mixture, 10 caterpillars in the first stage, 3 days later, read-out: percentage reduction in population and percentage reduction in feeding damage (% activity)
Procedure: 3 days later, the percentage reduction in population and the percentage reduction in feeding damage (% activity) are determined by comparing the number of dead caterpillars and the feeding damage on the treated plants with that on untreated plants.

Tetranychus urticae = experiment: Action against Tetranychus urticae (spray on young bean plants); conditions: 144 h, 12.5 ppm spray mixture, mixed population, 6 days at 25° C., read-out: percentage reduction in population (% activity)
Procedure: The plants are incubated for 6 days at 25° C. and subsequently evaluated. The percentage reduction in population (% activity) is determined by comparing the number of dead eggs, larvae and adults on the treated plants with that on untreated plants.

Plutella xylostella = experiment: Action against Plutella xylostella caterpillars (spray on young cabbage plants); conditions: 72 h, 12.5 ppm spray mixture, 10 caterpillars in the first stage, 3 days later, read-out: percentage reduction in population and percentage reduction in feeding damage (% activity)
Procedure: After the spray-coating has dried, the cabbage plants are populated with 10 caterpillars of Plutella xylostella in the first stage and placed in a plastics container. Evaluation is made 3 days later. The percentage reduction in population and the percentage reduction in feeding damage (% activity) are determined by comparing the number of dead caterpillars and the feeding damage on the treated plants with that on the untreated plants.

SMILES	inhibition at 12.5 ppm (Spodoptera littoralis) [%]	inhibition at 12.5 ppm (Tetranychus urticae) [%]	inhibition at 12.5 ppm (Plutella xylostella) [%]
CCC(C)[C@H]1O[C@]2(C=C[C@@H]1C)C[C@@H]1C[C@@H](C/C=C(\C)[C@@H](OC3C[C@H](OC)[C@@H](OCOCCN)[C@H](C)O3)C(C)/C=C/C=C3\CO[C@@H]4[C@H](O)C(C)=C[C@@H](C(=O)O1)[C@]34O)O2 (stereo partly drawn) [Compound 3.19]	> 80	> 80	–
CCC(C)[C@H]1O[C@]2(C=C[C@@H]1C)C[C@@H]1C[C@@H](C/C=C(\C)[C@@H](OC3C[C@H](OC)[C@@H](OC4C[C@H](OC)[C@H](OCOCCOC)[C@H](C)O4)[C@H](C)O3)C(C)/C=C/C=C3\CO[C@@H]4[C@H](O)C(C)=C[C@@H](C(=O)O1)[C@]34O)O2 (stereo partly drawn) [Compound 2.8, 4″-epi-O-(2-methoxyethoxymethyl)-Avermectin B1]	–	–	> 80
